Patent publication US20030186345A1, “Macromolecular enzyme substrates” (priority 2003, published 2003)

Legend:
pancreatic amylase [1] = target: T1, pancreatic amylase (Homo sapiens, UniProt P04746); assay: Immunoinhibition by polyclonal antiamylase antisera, pancreatic amylase; type: biochemical
T1 construct: purchased Scripps Laboratories (San Diego, Calif.)
T1 sequence (P04746 16-511): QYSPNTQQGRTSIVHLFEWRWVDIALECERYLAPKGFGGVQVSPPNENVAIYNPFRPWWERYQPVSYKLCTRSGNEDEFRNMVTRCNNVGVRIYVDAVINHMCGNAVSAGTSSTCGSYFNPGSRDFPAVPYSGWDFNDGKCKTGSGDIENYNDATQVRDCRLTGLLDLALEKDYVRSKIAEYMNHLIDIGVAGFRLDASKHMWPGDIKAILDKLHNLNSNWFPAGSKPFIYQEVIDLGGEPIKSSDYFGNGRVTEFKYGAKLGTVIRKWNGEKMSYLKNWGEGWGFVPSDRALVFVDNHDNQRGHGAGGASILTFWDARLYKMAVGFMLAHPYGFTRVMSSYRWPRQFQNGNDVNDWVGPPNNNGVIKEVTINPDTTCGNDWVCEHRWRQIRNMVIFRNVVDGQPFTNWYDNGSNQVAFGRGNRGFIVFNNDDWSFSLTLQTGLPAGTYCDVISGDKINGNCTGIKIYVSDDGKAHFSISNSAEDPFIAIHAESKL
Protocol: (§1) Amylase assays using oligosaccharide substrates were automated using a Cobas Fara analyzer (Roche, Basel, Switzerland). Unless indicated, assay temperature was 37° C., and absorbance changes were measured at 405 nm every minute over a 20 minute period. Assay buffer was either 52.5 mmol/L 4-(2-hydroxyethyl)-1-piperazine-ethanesulfonic acid (HEPES) buffer, pH 7.15, 87 mmol/L sodium chloride, 12.6 mmol/L magnesium chloride, 0.075 mmol/L calcium chloride (HEPES buffer) or 50 mmol/L MES, pH 6.0, 350 mmol/L sodium chloride, 6 mmol/L calcium acetate, 900 mmol/L KSCN (MES buffer). Amylases were diluted into assay buffer containing 1 mg/mL rabbit albumin. […] Unless indicated, final concentrations of MABs were 10 mg/L. Reaction blanks were determined by measuring the absorbance of substrate or enzyme alone at 405 nm. […] Differences between the test samples and reagent blanks were determined. Activity of stock solutions of amylase was based on activity measured with a Hitachi 917 analyzer using a Roche kit (Cat. No 1876473) (Indianapolis, Ind.) which uses EtG7pNP as the substrate. […]
(§2) The effects of two different polyclonal antiamylase immunoglobulin preparations on salivary and pancreatic amylase activity using mPEG-coupled and uncoupled substrates were tested. […] 100% amylase activity was determined in the absence of any antibody.

pancreatic amylase [2] = target: T1, pancreatic amylase; assay: Immunoinhibition by MABs, pancreatic amylase, oligosaccharide substrates; type: biochemical; conditions: pancreatic isoenzyme, 40 U/I (G5, G7 substrates) or 400 U/I (G3 substrates), 100% = no MAB; for % activity with MAB 66C7 / % activity with MAB 88E8: MAB 10 mg/L
Protocol: (§3) Amylase assays using oligosaccharide substrates were automated using a Cobas Fara analyzer (Roche, Basel, Switzerland). Unless indicated, assay temperature was 37° C., and absorbance changes were measured at 405 nm every minute over a 20 minute period. Assay buffer was either 52.5 mmol/L 4-(2-hydroxyethyl)-1-piperazine-ethanesulfonic acid (HEPES) buffer, pH 7.15, 87 mmol/L sodium chloride, 12.6 mmol/L magnesium chloride, 0.075 mmol/L calcium chloride (HEPES buffer) or 50 mmol/L MES, pH 6.0, 350 mmol/L sodium chloride, 6 mmol/L calcium acetate, 900 mmol/L KSCN (MES buffer). Amylases were diluted into assay buffer containing 1 mg/mL rabbit albumin. Final reaction volumes were 200 μL and consisted of 3 solutions, R1, R2, and R3. […] Depending upon the assay, R2 and R3 contained either amylase or substrate. R1 and R2 solutions were mixed for 10 seconds prior to the addition of R3. For immunoinhibition studies, antibodies were preincubated with amylase (R2) for 30 minutes at room temperature prior to the addition of substrate (R3). Unless indicated, final concentrations of MABs were 10 mg/L. Reaction blanks were determined by measuring the absorbance of substrate or enzyme alone at 405 nm. When EtG7pNP or mPEG-EtG7pNP were used as substrates, α-glucosidase was included in the blank measurement. Differences between the test samples and reagent blanks were determined. Activity of stock solutions of amylase was based on activity measured with a Hitachi 917 analyzer using a Roche kit (Cat. No 1876473) (Indianapolis, Ind.) which uses EtG7pNP as the substrate. For Km determinations, 4 or 5 different substrate concentrations (0.05 mmol/L to 6 mmol/L) with salivary (4-20 U/L) or pancreatic (4-40 U/L) amylase were used.

salivary amylase [3] = target: T2, salivary amylase (Homo sapiens, UniProt P0DUB6); assay: Amylase assay, Km determination, salivary amylase; type: biochemical
T2 construct: purchased Sigma (St. Louis, Mo.)
T2 sequence (P0DUB6 16-511): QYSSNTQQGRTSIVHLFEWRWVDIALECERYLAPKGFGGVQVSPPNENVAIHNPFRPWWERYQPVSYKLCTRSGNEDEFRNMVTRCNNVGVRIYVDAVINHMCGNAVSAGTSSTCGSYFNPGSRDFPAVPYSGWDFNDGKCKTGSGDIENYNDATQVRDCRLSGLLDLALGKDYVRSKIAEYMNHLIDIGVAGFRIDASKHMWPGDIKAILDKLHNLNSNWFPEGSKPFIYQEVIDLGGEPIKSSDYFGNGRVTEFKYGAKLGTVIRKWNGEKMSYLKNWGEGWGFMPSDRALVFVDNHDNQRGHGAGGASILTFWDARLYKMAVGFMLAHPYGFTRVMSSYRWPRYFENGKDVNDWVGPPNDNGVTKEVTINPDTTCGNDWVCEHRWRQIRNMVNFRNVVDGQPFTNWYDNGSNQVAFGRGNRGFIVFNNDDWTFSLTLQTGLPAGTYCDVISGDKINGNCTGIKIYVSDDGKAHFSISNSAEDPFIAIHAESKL
Protocol: as §3

salivary amylase [4] = target: T2, salivary amylase; assay: Immunoinhibition by MABs, salivary amylase, oligosaccharide substrates; type: biochemical; conditions: salivary isoenzyme, 20 U/I (G5, G7 substrates) or 600 U/I (G3 substrates), 100% = no MAB; for % activity with MAB 66C7 / % activity with MAB 88E8: MAB 10 mg/L
Protocol: as §3
When both MABs were used, MAB 88E8 concentrations were varied in the presence of 10 mg/L MAB 66C7. At an antibody concentration of 10 mg/L, MAB 88E8 inhibits 98% of salivary amylase activity in HEPES buffer and 34% of salivary amylase activity in MES buffer. MAB 66C7 increases salivary amylase activity in HEPES buffer and has no effect on salivary amylase activity in MES buffer. Using a mixture of MABs 88E8 and 66C7 at concentrations of […], >99% of salivary amylase activity is inhibited in HEPES buffer and 73% of salivary amylase activity is inhibited in MES buffer. When the pH of the MES buffer was increased from 6.0 to 6.5 and the concentration of KSCN was decreased from 900 mmol/L to 300 mmol/L, >97% of salivary amylase activity was inhibited by MAB 88E8.

salivary amylase [5] = target: T2, salivary amylase; assay: Extent of cleavage of substrates by excess salivary amylase; type: biochemical
Protocol: Substrates were diluted into HEPES buffer and absorbances were recorded between 250 nm and 500 nm. To determine the maximum amount of substrate that could be cleaved with amylase, substrates were incubated with 60 units/mL of salivary amylase. When EtG7pNP and mPEG-EtG7pNP were used, 4 units/mL of α-glucosidase were included in the incubation.
To determine the maximal amount of mPEG-coupled and uncoupled substrate that could be cleaved by amylase, substrates were incubated with excess salivary amylase and the amount of free chromophore released was determined by measuring absorptions between 250 nm and 500 nm during amylase digestion. […] Incubations were monitored until endpoints of reactions were approached. α-Glucosidase was included in the incubation when EtG7pNP and mPEG-EtG7pNP were used as substrates.

pancreatic amylase [6] = target: T1, pancreatic amylase; assay: Amylase assay, Km determination, pancreatic amylase; type: biochemical
Protocol: as §3, with “Assay buffer was either 52.5 mmol/L 4-(2-hydroxyethyl)-1-piperazine-ethanesulfonic acid (HEPES) buffer, pH 7.15, 87 mmol/L sodium chloride, 12.6 mmol/L magnesium chloride, 0.075 mmol/L calcium chloride (HEPES buffer) or 50 mmol/L MES, pH 6.0, 350 mmol/L sodium chloride, 6 mmol/L calcium acetate, 900 mmol/L KSCN (MES buffer).” left out

salivary amylase [7] = target: T2, salivary amylase; assay: Immunoinhibition by polyclonal antiamylase antisera, salivary amylase; type: biochemical
Protocol: as §1, §2

[8] = test system: pancreatic and salivary amylase; assay: Lag phase of amylase reaction; type: biochemical, human; conditions: purified pancreatic and salivary amylase; Cobas Fara analyzer
Protocol: as §1, with “albumin. Final reaction volumes were 200 μL and consisted of 3 solutions, R1, R2, and R3. […] Depending upon the assay, R2 and R3 contained either amylase or substrate. R1 and R2 solutions were mixed for 10 seconds prior to the addition of R3.” for “albumin.”

[9] = 37° C., pH 6.5 in MES buffer containing 300 mM KSCN

Fold lower concentration of antibody inhibiting cleavage than for G3ClpNP (pancreatic amylase [1])	Substrate cleaved by salivary amylase and α-glucosidase (salivary amylase [5]; digestion for 60 minutes)	Fold lower concentration of antibody inhibiting cleavage than for G3ClpNP (salivary amylase [7])	SMILES	% activity with MAB 88E8 + 66C7 (pancreatic amylase [2])	% activity with MAB 66C7 (pancreatic amylase [2])	% activity with MAB 88E8 (pancreatic amylase [2])	Km (salivary amylase [3]; 37° C., HEPES buffer pH 7.15)	% activity with MAB 88E8 + 66C7 (salivary amylase [4])	% activity with MAB 66C7 (salivary amylase [4])	% activity with MAB 88E8 (salivary amylase [4])	Km (pancreatic amylase [6]; 37° C., HEPES buffer pH 7.15)	Km (salivary amylase [3]; 25° C., HEPES buffer pH 7.15)	Km (salivary amylase [3]; [9])	Lag phase, time to reach maximal rates [8]	CNP released by salivary amylase (salivary amylase [5]; excess salivary amylase, 40 minutes at room temperature)	Km (pancreatic amylase [6]; 25° C., HEPES buffer pH 7.15)	Km (pancreatic amylase [6]; [9])
~3 fold	~90%	> 50 fold	CC1OC[C@H]2O[C@H](O[C@H]3[C@H](O)[C@@H](O)[C@@H](O[C@H]4[C@H](O)[C@@H](O)[C@@H](O[C@H]5[C@H](O)[C@@H](O)[C@@H](O[C@H]6[C@H](O)[C@@H](O)[C@@H](O[C@H]7[C@H](O)[C@@H](O)[C@@H](O[C@H]8[C@H](O)[C@@H](O)[C@@H](Oc9ccc([N+](=O)[O-])cc9)O[C@@H]8CO)O[C@@H]7CO)O[C@@H]6CO)O[C@@H]5CO)O[C@@H]4CO)O[C@@H]3CO)[C@H](O)[C@@H](O)[C@@H]2O1 (stereo partly drawn) [EtG7pNP, 4,6-O-ethylidene p-nitrophenyl-α-D-maltoheptaoside]	96%	105%	96%	130 µM	2%	105%	6%	170 µM	–	–	–	–	–	–
–	–	–	O=[N+]([O-])c1ccc(O[C@H]2O[C@H](CO)[C@@H](O[C@H]3O[C@H](CO)[C@@H](O[C@H]4O[C@H](CO)[C@@H](O)[C@H](O)[C@H]4O)[C@H](O)[C@H]3O)[C@H](O)[C@H]2O)c(Cl)c1 [Substrate G3ClpNP, 2-chloro-p-nitrophenol-α-D-maltotrioside]	103%	117%	103%	6900 µM	1%	104%	3%	2200 µM	4600 µM	2000 µM	little or no lag phase	~90%	1300 µM	610 µM
